For eleven compounds, inhibition and Activity results are on record in ChEMBL document CHEMBL4311969, “Polygala tenuifolia-Acori tatarinowii herbal pair as an inspiration for substituted cinnamic α-asaronol esters: Design, synthesis, anticonvulsant activity, and inhibition of lactate dehydrogenase study” (Eur J Med Chem, 2019).

For data set [1], the species on record is Homo sapiens. Description: Inhibition of human LDH1 at 0.5 mM using sodium pyruvate as substrate by UV-VIS spectrophotometry method relative to control.
In data set [2] the test system is Mus musculus. Nature of the data set: Anticonvulsant activity in Kunming mouse assessed as MES-induced hind limb extension at 100 mg/kg, ip administered 0. 5 to 4 hrs before MES stimulation relative to control. Type of data set: functional.
The species named for data set [3] is Homo sapiens. Nature of the data set: Inhibition of human LDH5 at 0.5 mM using sodium pyruvate as substrate by UV-VIS spectrophotometry method relative to control.
Data set [4] is described as follows: Neurotoxicity against Kunming mouse assessed as time remained in rod at 100 mg/kg, ip administered 0.5 to 2 hrs by rotarod test. Format: toxicity, organism-based. To be noted: in vivo.
Data set [5] concerns Mus musculus. Nature of the data set: Anticonvulsant activity in Kunming mouse assessed as MES-induced hind limb extension at 100 mg/kg, ip administered 0. 5 to 2 hrs before MES stimulation. Format: functional, organism-based.

SMILES strings stand for the structures. Active and inactive are the calls of the source. The calls are words filed in the database; no cut-off is given here.

Consider `COc1cc(OC)c(OC)cc1/C=C/COC(=O)/C=C/c1c(OC)c(OC)c(OC)c(OC)c1OC`, for which the inhibition entry in the data set listed under Homo sapiens [1] and in the data set listed under Homo sapiens [3] was “inactive” throughout. Also, the outcome in the data set on Mus musculus [2] was inactive. Besides, the Activity entry in data set [4] is on record as “Non-Toxic”. Moreover, in the data set on Mus musculus [5], the result was Active.
As for `COc1cc(OC)c(OC)cc1/C=C/CNC(=O)/C=C/c1cc(OC)c(OC)c(OC)c1`, the inhibition is under 5% in the data set listed under Homo sapiens [1] and 9% in the data set filed under Homo sapiens [3]. The Activity is 25 - 100% with Mus musculus [2] and “Non-Toxic” in data set [4]. The outcome in the data set on Mus musculus [5] was Active.
The matching figures for `COc1cc(OC)c(OC)cc1CCCNC(=O)/C=C/c1cc(OC)c(OC)c(OC)c1`: under 5%, 9%, 25 - 100%, “Non-Toxic” and “Active”.
For `COc1ccc(/C=C/C(=O)OC/C=C/c2cc(OC)c(OC)cc2OC)c(OC)c1`, the inhibition result in the data set listed under Homo sapiens [1] and in the data set listed under Homo sapiens [3] was “inactive” in each case. In addition, the Activity was 25 - 100% in the data set with Mus musculus [2] and “Non-Toxic” in data set [4]. In addition, in the data set on Mus musculus [5], the result was Active.
`COc1cc(OC)c(OC)cc1/C=C/COC(=O)/C=C/c1cccc(Cl)c1`: the inhibition in the data set listed under Homo sapiens [1] is under 5%; in the data set filed under Homo sapiens [3], under 9%. The Activity in the data set on Mus musculus [2] is 25 - 100%; in data set [4], “Non-Toxic”. Also, the outcome with Mus musculus [5] was Active.
For the compound `COc1cc(/C=C/C(=O)O)cc(OC)c1OC` [SINAPIC ACID METHYL ETHER], the Activity entry in data set [4] is “Non-Toxic”. In the data set on Mus musculus [5], the outcome was Active.
In the case of `COc1cc(OC)c(OC)cc1/C=C/COC(=O)/C=C/c1ccccc1F`, the inhibition in the data set filed under Homo sapiens [1] is under 5%; in the data set filed under Homo sapiens [3], under 9%. Besides, the outcome with Mus musculus [2] was inactive. Further, the Activity entry in data set [4] was “Non-Toxic”. For the same compound, in the data set with Mus musculus [5], the result was Active.
Turning to `COc1cc(OC)c(OC)cc1/C=C/COC(=O)/C=C/c1ccc(C(F)(F)F)cc1`, the inhibition is under 5% in the data set listed under Homo sapiens [1] and under 9% in the data set listed under Homo sapiens [3]. Further, the Activity is reported as 25 - 100% in the data set on Mus musculus [2] and “Non-Toxic” in data set [4]. For the same compound, in the data set with Mus musculus [5], the outcome was Active.
The matching figures for `COc1cc(OC)c(OC)cc1/C=C/COC(=O)/C=C/c1cccc(C(F)(F)F)c1`: under 5%, under 9%, “inactive”, “Non-Toxic” and “Active”.
With `COc1cc(OC)c(OC)cc1/C=C/COC(=O)/C=C/c1ccccc1Br`, the inhibition in the data set filed under Homo sapiens [1] was under 5%; in the data set filed under Homo sapiens [3] it was under 9%. For the same compound, the result in the data set with Mus musculus [2] was inactive. Besides, the Activity result in data set [4] is reported as “Non-Toxic”. For the same compound, the outcome in the data set with Mus musculus [5] was Active.
With `COc1cc(/C=C/C(=O)OC/C=C/c2cc(OC)c(OC)cc2OC)cc(OC)c1`, the inhibition result in the data set listed under Homo sapiens [1] and in the data set listed under Homo sapiens [3] was “inactive” each time. Further, the Activity was 25 - 100% in the data set with Mus musculus [2] and “Non-Toxic” in data set [4]. Besides, the outcome with Mus musculus [5] was Active.
